Like-named read-outs stand apart in the source and are kept apart here.
Experiments:
P-gp = P-gp substrate test in transfected MDCK cells; type: in vitro ADME
[1] = oral dosing of SD rats: exposure, GABAA related effects, toxicity; type: in vivo, SD rat; details: for effects attributable to GABAA binding (CNS effects): SD rats dosed orally; for toxicities observed at the maximum tolerated dose: SD rats, orally for seven consecutive days
in vitro metabolism = type: in vitro ADME
major human CYP isozymes = assay: CYP inhibition; type: in vitro ADME
human tumor xenografts = details: cited from earlier work
[2] = brain total exposure in nude mice; details: for AUC brain (AUC0–8h) / brain Cmax: sodium salts PO 30 mg/kg
[3] = Phase I; cited from earlier work
[4] = pharmacokinetics in Sprague-Dawley rat; type: in vivo; details: IV 1 mg/kg, 10% 2-HP-β-CD
[5] = stability in human S9 fraction; type: in vitro ADME

Compound | substrate of P-gp (P-gp) | effects attributable to GABAA binding (CNS effects) [1] | toxicities observed at the maximum tolerated dose [1] | in vitro metabolism (in vitro metabolism) | CYP inhibition (major human CYP isozymes; concentrations up to 100 μM) | tumor growth inhibition (human tumor xenografts; multiple xenograft efficacy models in immunocompromised mice) | AUC brain (AUC0–8h) [2] | brain Cmax [2] | incidence of somnolence [3] | IC50 (major human CYP isozymes; human) | tumor growth inhibition (human tumor xenografts; multiple human tumor xenograft models) | CL [4] | stability in human S9 fraction [5] | brain AUC reduction ([2]; compared with MLN8054)
O=C(O)c1ccc(Nc2ncc3c(n2)-c2ccc(Cl)cc2C(c2c(F)cccc2F)=NC3)cc1 [MLN8054 (8)] | not a substrate of P-gp | reversible central nervous system (CNS) effects | myelosuppression and mucositis | predominantly through CYP1A2 and 3A4 | no CYP inhibition is observed | Significant tumor growth inhibition, with no overt toxicity | 12500 ng·h/mL | 2600 ng/mL |  |  |  |  |  | 
COc1cc(Nc2ncc3c(n2)-c2ccc(Cl)cc2C(c2c(F)cccc2OC)=NC3)ccc1C(=O)O [alisertib (10)] | not a substrate of P-gp | No effects attributable to GABAA binding were observed | myelosuppression and mucositis | low and is mediated through multiple CYP isoforms and UGTs |  |  | 2000 ng·h/mL | 420 ng/mL | not dose limiting | > 100 µM | significant tumor growth inhibition | 10.4 mL min^–1 kg^–1 |  | 
O=C(O)c1ccc(Nc2ncc3c(n2)-c2ccc(Cl)cc2C(c2ccccc2F)=NC3)cc1 [compound 7] |  |  |  |  |  |  |  |  |  |  |  |  | stable in human S9 fraction | 
COc1cccc(F)c1C1=NCc2cnc(Nc3ccc(C(=O)O)cc3)nc2-c2ccc(Cl)cc21 [compound 9] |  | No effects attributable to GABAA binding were observed |  |  |  |  | 3500 ng·h/mL | 930 ng/mL |  |  |  |  |  | 3 fold

— PMC4468408 (ACS Medicinal Chemistry Letters, 2015)
